The text below walks through data of PubChem BioAssay (NCI).

Among the test systems are HCC-2998 colon; RPMI-8226 leukemia; NCI-H23 lung; MOLT-4 leukemia; MCF7 breast; MALME-3M melanoma; BT-549 breast; U251 CNS.
Holding throughout (assay): NCI-60 cell line screen, 48 h

SMILES strings stand for the structures. “And” between values parts separate entries of the source, which are not always exact repeats. Identical values can stand only once.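 48-hour exposure; five concentrations; linearly interpolated endpoints. GI50 = concentration required for 50% inhibition of growth. TGI marks complete inhibition of growth.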

As to `CN(CCCCCl)P(=O)(OCCS(=O)(=O)CC(NC(=O)CCC(N)C(=O)O)C(=O)NC(C(=O)O)c1ccccc1)OCC1OC(n2ccc(N)nc2=O)C(F)(F)C1O` (stereo unspecified), the GI50 with HCC-2998 colon was 24.5 µM; with RPMI-8226 leukemia, 0.901 µM; in the experiment with NCI-H23 lung, 0.0483 µM; in the experiment on MOLT-4 leukemia it was 0.146 µM; in the experiment on MALME-3M melanoma, 3.06 µM; in the experiment with BT-549 breast, 0.783 µM. Besides, the GI50 with U251 CNS is 0.23 µM. Besides, the TGI is more than 100 µM with HCC-2998 colon; more than 78.1 µM with RPMI-8226 leukemia; 16.8 µM in the experiment on NCI-H23 lung; more than 70.1 µM with MOLT-4 leukemia; more than 100 µM with MCF7 breast; more than 100 µM with MALME-3M melanoma. Besides, the TGI with BT-549 breast and in the experiment with U251 CNS was more than 100 µM in each case.

Regarding `COC(=O)C1C(O)CCC2CN3CCc4c([nH]c5ccccc45)C3CC21` (stereo unspecified), the TGI with HCC-2998 colon, in the experiment with RPMI-8226 leukemia, with NCI-H23 lung, with MOLT-4 leukemia, in the experiment on MCF7 breast and in the experiment with MALME-3M melanoma was more than 100 µM each time. Also, the TGI in the experiment on BT-549 breast and with U251 CNS was more than 100 µM each time. For the same compound, the GI50 in the experiment on MOLT-4 leukemia is > 100 µM and 14.4 µM.

For `C[C@@H]1C[C@H](C)CN(S(=O)(=O)c2ccc3c(NO)c4ccc(S(=O)(=O)N5C[C@H](C)C[C@H](C)C5)cc4c(N=O)c3c2)C1`, the GI50 in the experiment on HCC-2998 colon is 0.122 µM; in the experiment with RPMI-8226 leukemia, 0.24 µM; with NCI-H23 lung it was 0.185 µM; with MOLT-4 leukemia, 0.0478 µM; in the experiment on MCF7 breast it was 0.176 µM; in the experiment with MALME-3M melanoma it was 0.14 µM. The results for the GI50 in the experiment on BT-549 breast and with U251 CNS were 0.175 µM and 0.129 µM, respectively. Besides, the TGI came to 0.265 µM in the experiment with HCC-2998 colon; 0.669 µM in the experiment on RPMI-8226 leukemia; 0.4 µM in the experiment with NCI-H23 lung; 0.194 µM in the experiment on MOLT-4 leukemia; 0.357 µM in the experiment on MCF7 breast; 0.293 µM in the experiment on MALME-3M melanoma. Further, the values for the TGI in the experiment with BT-549 breast and with U251 CNS were 0.34 µM and 0.266 µM, respectively.

With `S=c1snc2n1CCN2`, the GI50 with HCC-2998 colon was 19.3 µM; in the experiment on RPMI-8226 leukemia, 42.2 µM; in the experiment with NCI-H23 lung, more than 100 µM; in the experiment with MOLT-4 leukemia, 32.3 µM; with MCF7 breast it was 39.3 µM; with MALME-3M melanoma, more than 100 µM. The GI50 in the experiment on BT-549 breast and in the experiment on U251 CNS was more than 100 µM each time. Moreover, the TGI in the experiment on HCC-2998 colon was 74.7 µM; in the experiment with RPMI-8226 leukemia it was more than 100 µM; in the experiment with NCI-H23 lung, more than 100 µM; in the experiment on MOLT-4 leukemia it was more than 100 µM; in the experiment on MCF7 breast, more than 100 µM; with MALME-3M melanoma, more than 100 µM. The TGI in the experiment on BT-549 breast and in the experiment on U251 CNS was more than 100 µM throughout.

On to `CC[C@H](Nc1ncnc2nc[nH]c12)c1nc2cccc(F)c2c(=O)n1-c1ccccc1`, for which the GI50 with HCC-2998 colon is 58.6 µM; with RPMI-8226 leukemia, 37.6 µM; in the experiment with NCI-H23 lung, 80.8 µM; in the experiment on MOLT-4 leukemia it was 13.9 µM; in the experiment with MCF7 breast, 8.73 µM; in the experiment on MALME-3M melanoma, 17.2 µM. Further, the GI50 is 4.64 µM in the experiment on BT-549 breast and 51.2 µM in the experiment on U251 CNS. Moreover, the TGI in the experiment with HCC-2998 colon is more than 100 µM; in the experiment on RPMI-8226 leukemia it was more than 100 µM; with NCI-H23 lung, more than 100 µM; in the experiment on MOLT-4 leukemia, more than 87.4 µM; in the experiment with MCF7 breast, more than 100 µM; with MALME-3M melanoma it was more than 100 µM. For the same compound, the TGI in the experiment with BT-549 breast and in the experiment with U251 CNS was more than 100 µM throughout.

Consider `FC(F)(c1ccc2ncccc2c1)c1nnc2ccc(-c3ccncc3)nn12`, for which the GI50 in the experiment on HCC-2998 colon was more than 100 µM; in the experiment on RPMI-8226 leukemia, 53.3 µM; in the experiment on NCI-H23 lung, more than 100 µM; in the experiment with MOLT-4 leukemia it was 38.4 µM; in the experiment on MCF7 breast, 95.3 µM; in the experiment on MALME-3M melanoma it was more than 100 µM. Besides, the GI50 in the experiment with BT-549 breast is 53.7 µM; with U251 CNS it was 95.2 µM. Moreover, the TGI with HCC-2998 colon, with RPMI-8226 leukemia, with NCI-H23 lung, with MOLT-4 leukemia, in the experiment on MCF7 breast and in the experiment on MALME-3M melanoma was more than 100 µM in each case. The TGI in the experiment with BT-549 breast and in the experiment on U251 CNS was more than 100 µM in each case.

`COc1ccc(-c2ccncc2)cc1C(N)=O`: the GI50 in the experiment with HCC-2998 colon, with RPMI-8226 leukemia, with NCI-H23 lung, in the experiment on MOLT-4 leukemia, with MCF7 breast and with MALME-3M melanoma was more than 25 µM each time. Further, the GI50 in the experiment with BT-549 breast and with U251 CNS was more than 25 µM each time. In addition, the TGI in the experiment on HCC-2998 colon, in the experiment on RPMI-8226 leukemia, with NCI-H23 lung, in the experiment on MOLT-4 leukemia, with MCF7 breast and in the experiment with MALME-3M melanoma was more than 25 µM in each case. Moreover, the TGI in the experiment with BT-549 breast and with U251 CNS was more than 25 µM in each case.

On to `[C](#Cc1ccccc1)[Hg][C]#Cc1ccccc1`, for which the GI50 in the experiment with HCC-2998 colon is 47.7 µM; with RPMI-8226 leukemia, 13.1 µM; with NCI-H23 lung, 37.8 µM; with MOLT-4 leukemia, 34.3 µM; in the experiment with MCF7 breast, 10.4 µM; in the experiment on MALME-3M melanoma, 27.9 µM. The GI50 with BT-549 breast was 22.1 µM; in the experiment on U251 CNS, 22.4 µM. Moreover, the TGI in the experiment on HCC-2998 colon is 82.6 µM; in the experiment with RPMI-8226 leukemia, more than 100 µM; with NCI-H23 lung it was more than 100 µM; in the experiment on MOLT-4 leukemia, more than 100 µM; with MCF7 breast it was 56.9 µM; in the experiment with MALME-3M melanoma it was 54.7 µM. Besides, the results for the TGI in the experiment on BT-549 breast and with U251 CNS were 43.2 µM and 43.9 µM, respectively.

With `COc1cc(OC)c(C(=O)/C=C/c2cc3c(cc2OCc2ccccc2)OC(C)(C)CC3)cc1CC=C(C)C`, the GI50 in the experiment on HCC-2998 colon was 8.91 µM; in the experiment on RPMI-8226 leukemia it was 2.86 µM; in the experiment on NCI-H23 lung, 6.77 µM; with MOLT-4 leukemia it was 7.03 µM; with MCF7 breast, 3.08 µM; in the experiment with MALME-3M melanoma, 4.89 µM. Moreover, the GI50 was 4.2 µM in the experiment with BT-549 breast and 4.03 µM in the experiment on U251 CNS. Further, the TGI is more than 25 µM with HCC-2998 colon; 11.6 µM with RPMI-8226 leukemia; more than 25 µM in the experiment with NCI-H23 lung; more than 25 µM in the experiment on MOLT-4 leukemia; 11.2 µM in the experiment on MCF7 breast; 12.6 µM in the experiment on MALME-3M melanoma. Also, the TGI in the experiment with BT-549 breast was found to be 12.3 µM; in the experiment on U251 CNS, 10.8 µM.
